Measurements: patent publication USRE39682E1, “Farnesyl derivatives and pharmaceutical compositions containing them” (Ramot at Tel Aviv University Ltd., priority 1993, dated 2007)

What was measured:
[1] = tested on: PPMTase activity in intact HEC1A, ras-transformed rat1 and melanoma cells; test: Methylation of endogenous 21-24 KDa GTP-binding proteins in intact cells ([methyl-3H]methionine labelling); assay type: cell-based; conditions: 100 μM, FIG. 3
Procedure: (§1) Reactions were terminated after 10 min. by adding 500 μl chloroform methanol (1:1) and a subsequent addition of 250 μl H2O, mixing them and subsequently by phase separation. A portion of 125 μl of the chloroform phase was dried down at 40° C. and 200 μl of 1M NaOH/1% SDS solution were added thereto. The [^3H]methanol thus formed was counted by the vapor phase equilibrium method as described previously (Hakiai et al., Cell Mol. Neurobiol., 11, 415-431, (1991); Lenner et al., Cell Mol. Neurbiol., 12, 333 and 3351, (1992); Ben-Baruch et al., Biochem. Biophy. Res. Commun., 195, 282-288, (1993)). Typical background counts (i.e. counts of methylation with no AFC added) were 50-100 cpm while typical methylation counts with AFC as a substrate yielded 500 to 6000 cpm. Assays were performed in triplicate and background counts subtracted. Methylation of endogenous substrates, in intact cells, and [α-^32P] GTP-blot overlay assays and gel electrophoreses were performed as detailed previously (Hakiai et al., supra (1991); Lenner et al., supra (1993)).
HEC1A, rail, ras-transformed rail and B16F10 melanoma cells were also used for metabolic labelling of endogenous proteins with 100-300 μCi/ml [methyl-^3H]methionine which was also indicative of PPMTase activity. […]

[2] = molecular target: T1, PPMTase (Homo sapiens, UniProt O60725); test: PPMTase activity (AFC methylation) in membranes of HEC1A cells; assay type: biochemical; conditions: for PPMTase activity: with inhibitor
T1 construct: PPMTase activity in membranes obtained from four different cell lines as determined by methylation of AFC; endogenous in cells; host or cells: HEC1A cell membranes
Procedure: Charles River adult male rats were used for preparation of cerebellar synaptosomal membranes. Cerebella were removed after decapitation and homogenized in 0.32M sucrose containing 50 mM Tris-HCl pH 7.4, 3 mM EDTA, 1 mM EGTA, 5 unit/ml aprotinin and 5 μg/ml pepstatin (buffer A) to yield 10% (w/v) homogenates. Nuclear fractions were obtained by 10 min. 600×g centrifugation and synaptosomal fractions were obtained by 20 mins. 14,500×g centrifugation. Membranes of the various cell types used were prepared in the above buffer A by a 60 min. spin at 100,000×g.
Pellets were resuspended in the homogenization buffer and stored at −70° C. Methylation assays were performed at 37° C. in 50 mM Tris-HCl buffer pH 7.4, using 75-125 μg protein, 25 μM [methyl-^3H]AdoMet ([…]) as a methyl donor and 150 μM AFC as a methylation substrate (prepared as a stock solution in DMSO) in a total volume of 50 μl. DMSO concentration in all assays was 4%.
as §1
The B16F10 melanoma cells were grown in RPMI 1640/10% fetal calf serum, 2 mM glutamine and antibiotics as for the HEC1A cells, at the density of 1×10^4 cells/well. All four types of cells were used for determining the PPMTase activity using AFC as the substrate as described above for synaptosomal membrane preparation. Usually 150 μg membranal proteins were used in the assay for a 10 min. incubation time.

[3] = tested on: Ha-ras transformed rat1 (EJ) cells; test: Tumor growth in nude mice implanted with Ha-ras-transformed rat1 cells; assay type: in vivo, nude mice (CD1-Nu)
Procedure: Male nude mice (CD1—Nu) were obtained from the Weizmann Institute of Science, Rehovot, Israel. Groups of 5 to 8 mice (3-4 weeks old, 25±2 gr body weight) were used in each experiment for both; controls and FTS treatment. Cells (Ha-ras transformed rat1 (EJ) cells, 2×10^6 cells in 100 μl PBS) were injected systematically (s.c.). Cell implantation and drug administration began on the same day. The EJ cells were prepared from confluent cultures. Cells were detached with trypsin/EDTA, washed with DMEM/10% FCS followed by 3 times PBS washes. A suspension of 2×10^7 cells/ml was prepared and used for experiment within 15-30 min. of preparation.
FTS was prepared as a stock solution (0.225M) in ethanol. It was diluted just prior to the drug administration with PBS to yield a solution of 1.35 mM FTS, 0.6% ethanol. Under these conditions FTS remained in solution for the period of time required for administration.
Experimental mice received 100 μl of the FTS solution, respectively, daily or every other day. Controls received the appropriate administration of 0.6% ethanol in PBS. Tumor growth was monitored by daily observations and by size measurement using a millimetric caliper (two dimensions of the tumor size were taken usually twice a week).
Data were expressed in terms of tumor size (cm^2) in each mouse as a function of time.
Ha-ras transformed rat1 cells (2×10^6) were implanted beneath the skin of the right hind leg of nude mice. The mice received a systemic s.c. injection of either the solvent (0.6% ethanol in PBS) or FTS, starting on the day of cell implantations. Two sets of experiments were performed. In the one set the mice received 3.6 mg/kg FTS daily. Tumors sizes measured every 3-4 days beginning on day 10 of the experiment. […] Out of the 8 control mice, 6 developed tumors having a size of 4 cm^2 or greater and 2 developed tumors of 2 cm^2 or less. In another set of experiments mice received 1.6 mg/kg FTS every other day.

T1 sequence (O60725 whole entry): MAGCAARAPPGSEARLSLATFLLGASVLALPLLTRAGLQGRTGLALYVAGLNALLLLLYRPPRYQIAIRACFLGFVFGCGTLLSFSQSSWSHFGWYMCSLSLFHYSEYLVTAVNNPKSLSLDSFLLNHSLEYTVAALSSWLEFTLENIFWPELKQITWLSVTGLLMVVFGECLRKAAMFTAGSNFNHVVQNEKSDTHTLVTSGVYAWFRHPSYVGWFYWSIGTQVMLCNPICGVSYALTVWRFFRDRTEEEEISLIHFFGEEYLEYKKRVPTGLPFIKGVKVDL

Row | SMILES | inhibition of methylation of endogenous 21-24 KDa proteins [1] | % Inhibition [2] [%] | PPMTase activity [2] [pmol/min/mg protein] | effect on tumor growth ([3]; 1.6 mg/kg every other day, FIG. 13) | mice out of 8 that developed tumors of 2 cm2 or less ([3]; 3.6 mg/kg daily, systemic s.c.) | mice out of 8 that developed tumors of greater than 4 cm2 ([3]; 3.6 mg/kg daily, systemic s.c.) | effect on tumor growth ([3]; 3.6 mg/kg daily, systemic s.c., FIG. 12)
1 | CC(C)=CCC/C(C)=C/CC/C(C)=C/CSCC(=O)O [FTA, S-trans, trans-farnesylthioacetic acid, reference compound] | able to inhibit | 43 | 1.7 | – | – | – | –
2 | CC(C)=CCC/C(C)=C/CC/C(C)=C/CSc1ccccc1C(=O)O [FTS, (3,7,11-trimethyl-dodeca-2,6,10-trienyl)-2-thiobenzoic acid] | able to inhibit | 40 | 1.5 | inhibitory effects | 6 | 2 | profound inhibition of tumor growth
